Reference: publication PMC6057649, “Development of NanoLuc-PEST expressing Leishmania mexicana as a new drug discovery tool for axenic- and intramacrophage-based assays” (PLoS Neglected Tropical Diseases, 2018)

Tested on: NanoLuc-PEST expressing L. mexicana axenic amastigotes
Test: microbe, parasite or virus in culture
Assay type: cell-based
Conditions: for Relative Bioluminescence (%) / viability at 2 µM / viability at 10 µM: 72 hours, relative to DMSO only control, n = 4; for viability at 2 µM / viability at 10 µM: read-out: Relative Bioluminescence (%)
[1] = Leishmania mexicana, 2 µM compound
[2] = Leishmania mexicana, 10 µM compound

Row | Structure (SMILES) | Relative Bioluminescence (%) (2 µM compound) | Relative Bioluminescence (%) (10 µM compound) | viability at 2 µM [1] | viability at 10 µM [2] | EC50 (Leishmania mexicana, hit compounds from the axenic amastigote screen, S3 Table, read-out: EC50, Axenic Amastigotes)
1 | O=C(NC1=NCCS1)c1sc2cc(F)ccc2c1Cl [MMV676584] | 83.30% | 89.36% |  |  | 
2 | Cc1nn(C)c(C)c1NS(=O)(=O)c1c(Cl)cc(-c2ccnc(N3CCNCC3)c2)cc1Cl [MMV688180] | 98.32% | 81.67% |  |  | 
3 | COc1cc(C(F)(F)F)nc2ccc(C)c(N)c12 [MMV047015] | 86.47% | 82.90% |  |  | 
4 | O=C(Nc1ccnc(-c2cccnc2)n1)c1cc(C(F)(F)F)cc(C(F)(F)F)c1 [MMV019838] | 125.18% | 86.78% |  |  | 
5 | CS(=O)(=O)N1CCC(Cn2nc(Cc3cccc4ccccc34)c3c(N)ncnc32)CC1 [MMV676050] | 74.33% | 42.99% |  |  | 
6 | CC(C)c1ncc(-c2ccncc2)c(C2CCC(CNC(=O)c3cccnc3)CC2)n1 (centres unmarked) [MMV676442] | 118.75% | 113.29% |  |  | 
7 | COc1ccc(N(CCc2cccc(C)n2)C(=O)C2CCCCC2)cc1 [MMV675996] | 63.13% | 25.83% |  |  | 
8 | O=C1Nc2ccc(Br)cc2C12NCCc1c2[nH]c2ccccc12 (centres unmarked) [MMV006239] | 107.64% | 108.03% |  |  | 
9 | CCc1nn(C)c(C(=O)NCc2ccc(Oc3ccc(C)cc3)cc2)c1Cl [MMV688934, Tolfenpyrad] |  |  | 68.5% | 68.1% | 
10 | N#CCN(CCCCN1CCN(c2ccc(F)cc2)CC1)C(=O)OCc1ccccc1 [MMV675997] | 116.18% | 97.48% |  |  | 
11 | OCCc1ccc(Nc2nccc(-c3nnc4ccccn34)n2)cc1 [MMV028694] | 24.99% | 3.77% |  |  | 
12 | CN1CCN(S(=O)(=O)c2ccc(-c3ccc4c(Nc5ncc(Cl)cn5)ccnc4c3)cc2)CC1 [MMV688283] | 58.40% | 101.72% |  |  | 
13 | Cc1ccc2[nH]c3c(NCCN(C)C)ncnc3c2c1 [MMV006372] | 63.77% | 81.31% |  |  | 
14 | OC(c1cc(C(F)(F)F)nc2c(C(F)(F)F)cccc12)C1CCCCN1 (centres unmarked) [MMV000014, Mefloquine, reference compound] |  |  | 93.4% | 109% | 
15 | O=C(NCc1cc(Cl)cc(Cl)c1)c1c(C(F)(F)F)nc2ccccn12 [MMV687699] | 81.42% | 62.05% |  |  | 
16 | CC1CCCN(C(=O)C(C)Nc2cc(Cl)ccc2N2CCOCC2)C1 (centres unmarked) [MMV020388] | 121.02% | 143.84% |  |  | 
17 | C[C@H](C(N)=O)N1CCCC[C@@H]1c1ccc(OCc2cccc(F)c2)cc1 [MMV676270] | 41.26% | 18.00% |  |  | 
18 | FC(F)(F)c1cnc(Sc2nnc(-c3ccncc3)o2)c(Cl)c1 [MMV011765] | 84.80% | 45.24% |  |  | 
19 | O=C(Nc1cnc2ccccc2c1)c1cccc(-n2cnnn2)c1 [MMV084864] | 74.64% | 55.81% |  |  | 
20 | c1ccc(C[C@@H]2CN(c3nccc(Oc4ccc(-n5ccnc5)cc4)n3)CCN2)cc1 [MMV687749] | 66.01% | 56.67% |  |  | 

Row | Structure (SMILES) | Relative Bioluminescence (%) (2 µM compound) | Relative Bioluminescence (%) (10 µM compound) | viability at 2 µM [1] | viability at 10 µM [2] | EC50 (Leishmania mexicana, hit compounds from the axenic amastigote screen, S3 Table, read-out: EC50, Axenic Amastigotes)
21 | COc1ccc(-c2nnc3ccc(-c4cccc(C(C)C)c4)cn23)cc1OC [MMV688313] | 55.91% | 18.47% |  |  | 
22 | CCOc1ccccc1NC(C)C(=O)Nc1cc(C(F)(F)F)ccc1N1CCOCC1 (centres unmarked) [MMV407834] | 70.36% | 63.07% |  |  | 
23 | CCC(Sc1nc2ccccc2o1)C(=O)Nc1nnc(C)s1 (centres unmarked) [MMV611037] | 55.30% | 44.60% |  |  | 
24 | Cc1nc(-c2ccccn2)nc(NCCc2ccc(S(C)(=O)=O)cc2)c1Cl [MMV658993] | 93.82% | 64.93% |  |  | 
25 | Oc1c(I)cc(I)c2cccnc12 [MMV002817, Iodoquinol, reference compound] |  |  | -1.49% | -1.46% | 220 nM
26 | Cc1nn(C)cc1C(C)Nc1nncc(-c2ccc(C(F)(F)F)cc2)n1 (centres unmarked) [MMV019993] | 96.83% | 70.73% |  |  | 
27 | CN1CCC(c2cc(-c3ccncc3)c(-c3ccc(F)cc3)[nH]2)CC1 [MMV688703] | 74.84% | 81.84% |  |  | 
28 | Cn1ccnc1CNCCS(=O)(=O)c1cccc(Nc2ccc(-c3cccc(F)c3)cn2)c1 [MMV688466] | 108.11% | 117.26% |  |  | 
29 | Cc1nc(-c2ccccn2)nc(N(C)CCc2ccccc2)c1Cl [MMV658988] | 32.93% | -2.26% |  |  | 
30 | Cc1cc(Nc2ccc(C(F)(F)F)cc2)n2ccnc2n1 [MMV011229] | 102.18% | 84.66% |  |  | 
31 | O=C(NC1CC1)c1ccc(N2CCOc3ccc(Cl)cc32)s1 [MMV020537] | 116.22% | 146.04% |  |  | 
32 | CC(=O)N1CCc2cc3nc(C)cc(C)c3cc21 [MMV054312] | 120.77% | 116.16% |  |  | 
33 | COc1ccc(C(=N)N)cc1-c1cn(-c2ccc(C(=N)N)cc2)nn1 [MMV675998] | 92.81% | 65.21% |  |  | 
34 | O=C(Nc1ccc(N2CCNCC2)nc1)c1oc(-c2ccccc2)nc1C(F)(F)F [MMV024937] | 68.74% | 69.28% |  |  | 
35 | CC1CCCCN1C(=O)NCCc1coc(-c2ccc(F)cc2)n1 (centres unmarked) [MMV688797] | 76.99% | 71.92% |  |  | 
36 | CS(=O)(=O)c1ccc(C(=O)N(CC2CCCO2)c2nc3ccccc3s2)cc1[N+](=O)[O-] (centres unmarked) [MMV688761] | 39.52% | -1.44% |  |  | 
37 | NCC[C@H](O)C(=O)N[C@@H]1C[C@H](N)[C@@H](O[C@H]2O[C@H](CN)[C@@H](O)[C@H](O)[C@H]2O)[C@H](O)[C@H]1O[C@H]1O[C@H](CO)[C@@H](O)[C@H](N)[C@H]1O [MMV687796, Amikacin, reference compound] |  |  | 79.3% | 58.2% | 
38 | O=C(C(Cc1c[nH]c2ccccc12)NS(=O)(=O)c1ccc(Cl)cc1)N1CCCCC1 (centres unmarked) [MMV085210] | 65.83% | 73.33% |  |  | 
39 | COc1cccc2c(C)nc(N=C(N)N)nc12 [MMV000907] | 95.69% | 78.62% |  |  | 
40 | O=C(NCc1ccco1)N1CCN(Cc2ccc(Cl)s2)CC1 [MMV688555] | 63.56% | 83.23% |  |  | 

Row | Structure (SMILES) | Relative Bioluminescence (%) (2 µM compound) | Relative Bioluminescence (%) (10 µM compound) | viability at 2 µM [1] | viability at 10 µM [2] | EC50 (Leishmania mexicana, hit compounds from the axenic amastigote screen, S3 Table, read-out: EC50, Axenic Amastigotes)
41 | c1cc(C2=NCCN2)cc(-c2cc(-c3ccc(C4=NCCN4)cc3)no2)c1 [MMV688361] | 96.04% | 78.94% |  |  | 
42 | N#Cc1nc(-c2ccccc2F)oc1NCCc1ccccc1 [MMV676384] | 51.03% | 59.90% |  |  | 
43 | CC(C)(C)c1cnc(NC(=O)c2ccccc2O)s1 [MMV495543] | 70.90% | 27.02% |  |  | 
44 | CC(C)(C(=O)Nc1ccc(F)cc1)n1cc(-c2ccccc2F)cn1 [MMV687239] | 106.04% | 118.80% |  |  | 
45 | Cc1ncc(-c2ccnc(Nc3ccc(S(C)(=O)=O)cc3)n2)n1C(C)C [MMV676604] | 81.35% | 33.57% |  |  | 
46 | O=C(c1n[nH]c2c1CCCC2)N1CCN(Cc2ccc3c(c2)OCO3)CC1 [MMV676389] | 67.21% | 71.87% |  |  | 
47 | O=C(NC1CCN(c2ccnc3ccccc23)C1)c1cccc(C(F)(F)F)c1 (centres unmarked) [MMV023388] | 84.10% | 76.22% |  |  | 
48 | CCc1nc2ccc(Cl)cn2c1C(=O)NCc1ccc(N2CCC(c3ccc(OC(F)(F)F)cc3)CC2)cc1 [MMV687696] | 113.56% | 57.87% |  |  | 
49 | c1ccc(Oc2ccc(-c3cc(C4CCOCC4)[nH]n3)cc2)cc1 [MMV687762] | 41.49% | 31.40% |  |  | 
50 | Cc1nc(-c2ccccn2)nc(N2CCC(Cc3ccccc3)C2)c1Cl (centres unmarked) [MMV659004] | 73.83% | -1.44% |  |  | 
51 | Cc1cc(Nc2ccncc2)n2nc(C)c(-c3ccccc3Cl)c2n1 [MMV016136] | 83.56% | 91.85% |  |  | 
52 | CCN(CC)C(=O)N1CCN(C)CC1 [MMV002816, Diethylcarbamazine, reference compound] |  |  | 88.8% | 62.5% | 
53 | O=C(NCCc1ccn(-c2ccccc2)n1)C1CCCCC1 [MMV688795] | 79.12% | 86.70% |  |  | 
54 | CNc1cc(C)nc(C2CN(C(=O)c3n[nH]c4ccccc34)CCO2)c1 (centres unmarked) [MMV689709] | 77.39% | 68.10% |  |  | 
55 | O=C(NCCN1CCCC1)c1cc(NCCN2CCOCC2)nc2ccc(Cl)cc12 [MMV634140] | 112.61% | 73.96% |  |  | 
56 | CCCCc1ccc(C(=O)Nc2nccc3ccccc23)nc1 [MMV687254] | 63.72% | -0.07% |  |  | 
57 | COC(=O)C1=C(C)NC(C)=C(C(=O)OC(C)C)C1c1cccc2nonc12 (centres unmarked) [MMV001493, Isradipine, reference compound] |  |  | 130% | 89.6% | 
58 | c1coc(CNc2nc(N3CCCCC3)nc3ccccc23)c1 [MMV676401] | 91.23% | 75.18% |  |  | 
59 | N#Cc1ccc(-c2ccc(OCC(N)=O)cc2)cc1 [MMV053220] | 105.30% | 82.56% |  |  | 
